In patent publication US20260028354A1, “TETRAHYDRONAPHTHALENE DERIVATIVES AS ESTROGEN RECEPTOR DEGRADERS” (REGENT OF THE UNIVERSITY OF MICHIGAN, priority 2022, published 2026) one finds IC50, DC50 and Dmax data, which are given here for twelve compounds.

Read-outs that look alike come from different tables or passages of the source.

In one test the test system is MCF-7 cells. The experiment in a line: CellTiter-Glo (CTG) cell proliferation assay in MCF-7 cells. The settings on record: Homo sapiens, MCF7, 144 h, MCF-7 cell proliferation, Day 6. The class given is cell-based. From the text:
CellTiter-Glo® (CTG) Assays in MCF-7 and T47D Cell Lines.
In vitro Assay: MCF-7 and T47D CTG assay

A further test addresses ER in T47D cells (Homo sapiens (Human), UniProt P03372). The experiment in a line: In-cell Western (ICW) ER degradation assay in T47D cells. The format is cell-based. As to conditions: for DC50: ER degradation.
The target of another test is CRBN/DDB1 (Homo sapiens (Human), UniProt Q96SW2). The format is binding. The settings on record: His tagged CRBN+DDB1, Cy5-labeled Thalidomide probe, one hour; read-out: CRBN HTRF IC50. On the procedure: The binding potency was determined using HTRF assay technology (Perkin Elmer). Compounds were serially diluted in DMSO and […] volume was transferred to white 384-well plate.
Chain of CRBN/DDB1 (Q96SW2 whole entry, species assumed): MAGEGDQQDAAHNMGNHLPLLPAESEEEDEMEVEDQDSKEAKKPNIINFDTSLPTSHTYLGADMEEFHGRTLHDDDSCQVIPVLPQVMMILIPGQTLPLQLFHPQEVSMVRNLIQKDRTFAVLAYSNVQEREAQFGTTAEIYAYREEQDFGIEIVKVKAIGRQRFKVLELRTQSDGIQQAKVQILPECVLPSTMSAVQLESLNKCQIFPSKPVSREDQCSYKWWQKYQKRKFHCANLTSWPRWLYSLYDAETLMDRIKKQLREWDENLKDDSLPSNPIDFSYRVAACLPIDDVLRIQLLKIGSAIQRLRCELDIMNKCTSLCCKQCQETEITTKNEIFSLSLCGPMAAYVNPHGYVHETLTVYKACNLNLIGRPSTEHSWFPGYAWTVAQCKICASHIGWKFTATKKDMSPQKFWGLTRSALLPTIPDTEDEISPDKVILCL
Chain of CRBN/DDB1 (Q16531 whole entry partner, species assumed): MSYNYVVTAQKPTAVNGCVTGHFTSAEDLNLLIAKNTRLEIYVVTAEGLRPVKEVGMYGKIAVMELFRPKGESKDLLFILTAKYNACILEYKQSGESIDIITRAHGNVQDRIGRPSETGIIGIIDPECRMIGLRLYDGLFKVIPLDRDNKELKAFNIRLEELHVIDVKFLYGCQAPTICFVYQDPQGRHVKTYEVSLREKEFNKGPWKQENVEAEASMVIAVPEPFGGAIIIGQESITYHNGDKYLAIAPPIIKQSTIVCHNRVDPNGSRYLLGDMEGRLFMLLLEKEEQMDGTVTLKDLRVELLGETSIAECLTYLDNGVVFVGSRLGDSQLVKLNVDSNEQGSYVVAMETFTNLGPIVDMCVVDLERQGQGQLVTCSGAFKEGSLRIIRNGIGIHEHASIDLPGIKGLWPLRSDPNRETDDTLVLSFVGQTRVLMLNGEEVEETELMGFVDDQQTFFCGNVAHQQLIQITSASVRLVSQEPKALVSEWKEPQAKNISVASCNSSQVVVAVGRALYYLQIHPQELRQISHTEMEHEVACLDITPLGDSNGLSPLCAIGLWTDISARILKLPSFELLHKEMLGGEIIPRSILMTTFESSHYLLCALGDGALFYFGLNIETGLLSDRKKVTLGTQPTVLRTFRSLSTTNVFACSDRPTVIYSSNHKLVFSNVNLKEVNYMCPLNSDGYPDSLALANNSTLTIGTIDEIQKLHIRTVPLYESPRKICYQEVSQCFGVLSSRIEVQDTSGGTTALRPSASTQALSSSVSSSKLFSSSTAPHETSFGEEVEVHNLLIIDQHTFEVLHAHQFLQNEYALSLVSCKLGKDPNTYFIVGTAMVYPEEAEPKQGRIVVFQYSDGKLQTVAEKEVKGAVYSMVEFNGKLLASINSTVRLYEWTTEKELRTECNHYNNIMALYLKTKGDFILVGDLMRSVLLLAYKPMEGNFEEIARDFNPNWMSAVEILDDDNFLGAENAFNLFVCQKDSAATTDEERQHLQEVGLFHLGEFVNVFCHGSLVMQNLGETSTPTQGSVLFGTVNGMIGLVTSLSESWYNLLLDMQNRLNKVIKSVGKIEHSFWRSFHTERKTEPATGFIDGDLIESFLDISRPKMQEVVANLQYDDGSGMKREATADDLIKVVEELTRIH
A general note: In TR-FRET formats the signal depends on donor and acceptor labels being close together.

The next test has as its target ER in MCF-7 cells (Homo sapiens (Human), UniProt P03372). The experiment in a line: In-cell Western (ICW) ER degradation assay in MCF-7 cells. The class given is cell-based. The settings on record: for DC50: MCF-7, ER degradation, read-out: MCF7 DC50.
The mark [1] stands for this setting: read-out: T47D Dmax, T47D, maximal ER degradation, 16 hrs treatment.
Setting [2] is: MCF7, read-out: MCF7 Dmax, MCF-7, maximal ER degradation, 16 hrs treatment.

Chain of ER in MCF-7 cells (P03372 whole entry): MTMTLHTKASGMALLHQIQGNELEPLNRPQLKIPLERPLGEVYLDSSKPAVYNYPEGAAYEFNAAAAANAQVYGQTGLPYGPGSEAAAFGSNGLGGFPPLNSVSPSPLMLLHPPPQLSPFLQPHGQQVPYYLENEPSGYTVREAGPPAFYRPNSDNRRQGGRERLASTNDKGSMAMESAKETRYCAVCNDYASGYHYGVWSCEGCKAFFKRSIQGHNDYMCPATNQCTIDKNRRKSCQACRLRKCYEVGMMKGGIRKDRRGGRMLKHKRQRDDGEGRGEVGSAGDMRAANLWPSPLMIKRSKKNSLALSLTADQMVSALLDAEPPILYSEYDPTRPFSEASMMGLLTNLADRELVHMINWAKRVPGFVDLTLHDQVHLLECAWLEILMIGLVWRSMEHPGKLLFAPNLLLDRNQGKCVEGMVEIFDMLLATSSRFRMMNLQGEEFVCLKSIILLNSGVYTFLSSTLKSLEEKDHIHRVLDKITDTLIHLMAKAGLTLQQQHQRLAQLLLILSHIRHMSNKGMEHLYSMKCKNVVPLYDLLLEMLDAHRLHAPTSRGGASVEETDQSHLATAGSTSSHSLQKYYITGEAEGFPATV
Chain of ER in T47D cells (P03372 whole entry): as above

For `COc1cc(N2CCC(CCN3CCC4(CC3)COc3c4cc4c(c3Cl)C(=O)N([C@H]3CCC(=O)NC3=O)C4)CC2)c(F)cc1[C@@H]1c2ccc(O)cc2CC[C@@H]1c1ccccc1` [Compound A217, (S)-3-(8-chloro-1′-(2-(1-(2-fluoro-4-((1S,2S)-6-hydroxy-2-phenyl-1,2,3,4-tetrahydronaph-thalen-1-yl)-5-methoxyphenyl)-piperidin-4-yl)ethyl)-7-oxo-5,7-dihydro-2H,6H-spiro[furo[2,3-f]isoindole-3,4′-piperidin]-6-yl)piperidine-2,6-dione], the IC50 in the test with MCF-7 cells is < 10 nM.

With `COc1cc(N2CCC3(CC2)CC(CN2CCC4(CC2)COc2c4cc4c(c2C)C(=O)N([C@H]2CCC(=O)NC2=O)C4)C3)c(F)cc1[C@@H]1c2ccc(O)cc2CC[C@@H]1c1ccccc1` [Compound A220, (S)-3-(1′-((7-(2-fluoro-4-((1S,2S)-6-hydroxy-2-phenyl-1,2,3,4-tetrahydronaphthalen-1-yl)-5-methoxyphenyl)-7-aza-spiro[3.5]nonan-2-yl)methyl)-8-methyl-7-oxo-5,7-dihydro-2H,6H-spiro[furo[2,3-f]iso-indole-3,4′-piperidin]-6-yl)-piperidine-2,6-dione], the IC50 with MCF-7 cells is < 10 nM.

Regarding `COc1cc(N2CCC3(CC2)C[C@H](CN2CCC4(CC2)COc2c4cc(C)c4c2CN([C@H]2CCC(=O)NC2=O)C4=O)CO3)c(F)cc1[C@@H]1c2ccc(O)cc2CC[C@@H]1c1ccccc1` [Compound A208, (3S)-3-[1′-[[(3R)-8-[2-fluoro-4-[(1S,2S)-6-hydroxy-2-phenyl-tetralin-1-yl]-5-methoxy-phenyl]-1-oxa-8-azaspiro[4.5]decan-3-yl]methyl]-5-methyl-6-oxo-spiro[2,8-dihydrofuro[2,3-e]isoindole-3,4′-piperidine]-7-yl]piperidine-2,6-dione], the IC50 with MCF-7 cells fell in the range of 10 to 100 nM.

Turning to `Cc1cc2c(c3c1C(=O)N([C@H]1CCC(=O)NC1=O)C3)OCC21CCN(C[C@@H]2CCC3(CCN(c4ccc([C@@H]5c6ccc(O)cc6CC[C@@H]5c5ccccc5)cc4)CC3)OC2)CC1` [Compound A209, (S)-3-(1′-(((S)-9-(4-((1R,2S)-6-hydroxy-2-phenyl-1,2,3,4-tetrahydronaphthalen-1-yl)phenyl)-1-oxa-9-azaspiro[5.5]undecan-3-yl)methyl)-5-methyl-6-oxo-6,8-dihydro-2H,7H-spiro[furo[2,3-e]isoindole-3,4′-piperidin]-7-yl)piperidine-2,6-dione], the IC50 in the test with MCF-7 cells is < 10 nM.

In the test with MCF-7 cells, `COc1cc(N2CCC3(CC2)CC(CN2CCN4c5cc(C)c6c(c5OC[C@H]4C2)CN([C@H]2CCC(=O)NC2=O)C6=O)C3)c(F)cc1[C@@H]1c2ccc(O)cc2CC[C@@H]1c1ccccc1` [Compound A228, (S)-3-((R)-7-((7-(2-fluoro-4-((1S,2S)-6-hydroxy-2-phenyl-1,2,3,4-tetrahydronaphthalen-1-yl)-5-methoxyphenyl)-7-aza-spiro[3.5]nonan-2-yl)methyl)-12-methyl-1-oxo-1,3,5,5a,6,7,8,9-octahydro-2H-pyrazino [1′,2′:4,5][1,4]oxazino[2,3-e]isoindol-2-yl)piperidine-2,6-dione] returned an IC50 of 10 to 100 nM.

`COc1cc(N2CCC(CCN3CCN4c5cc(Cl)c6c(c5OC[C@H]4C3)CN([C@H]3CCC(=O)NC3=O)C6=O)CC2)c(F)cc1[C@@H]1c2ccc(O)cc2CC[C@@H]1c1ccccc1` [Compound A224, (S)-3-((R)-12-chloro-7-(2-(1-(2-fluoro-4-((1S,2S)-6-hydroxy-2-phenyl-1,2,3,4-tetrahydronaphthalen-1-yl)-5-methoxyphenyl)piperidin-4-yl)ethyl)-1-oxo-1,3,5,5a,6,7,8,9-octahydro-2H-pyrazino[1′,2′: 4,5][1,4]oxazino[2,3-e]isoindol-2-yl)piperidine-2,6-dione] had a concentration for half-maximal inhibition (IC50) with MCF-7 cells of 10 to 100 nM.

With `COc1cc(N2CCC(CCN3CCC4(CC3)COc3c4cc(C)c4c3CN([C@H]3CCC(=O)NC3=O)C4=O)CC2)c(F)cc1[C@@H]1c2ccc(O)cc2CC[C@@H]1c1ccccc1` [Compound A213, (S)-3-(1′-(2-(1-(2-fluoro-4-((1S,2S)-6-hydroxy-2-phenyl-1,2,3,4-tetrahydronaphthalen-1-yl)-5-methoxyphenyl)piper-idin-4-yl)ethyl)-5-methyl-6-oxo-6,8-dihydro-2H,7H-spiro [furo[2,3-e]isoindole-3,4′-piperidin]-7-yl)piperidine-2,6-dione], the IC50 in the test on MCF-7 cells was < 10 nM.

As to `Cc1cc2c(c3c1C(=O)N([C@H]1CCC(=O)NC1=O)C3)OCC21CCN(CC2CC3(CCN(c4ccc([C@@H]5c6ccc(O)cc6CC[C@@H]5c5ccccc5)cc4)CC3)C2)CC1` [Compound A214, (S)-3-(1′-((7-(4-((1R,2S)-6-hydroxy-2-phenyl-1,2,3,4-tetra-hydronaphthalen-1-yl)phenyl)-7-azaspiro[3.5]nonan-2-yl)-methyl)-5-methyl-6-oxo-6,8-dihydro-2H,7H-spiro[furo[2,3-c]isoindolc-3,4′-pipcridin]-7-yl)piperidine-2,6-dione], in the test on MCF-7 cells, the IC50 was < 10 nM.

As for `COc1cc(N2CCC3(CC2)CC(CN2CCC4(CC2)COc2c4cc(OC)c4c2CN([C@@H]2CCC(=O)NC2=O)C4=O)C3)c(F)cc1[C@@H]1c2ccc(O)cc2CC[C@@H]1c1ccccc1` [Compound A223, (R)-3-(1′-((7-(2-fluoro-4-((1S,2S)-6-hydroxy-2-phenyl-1,2,3,4-tetrahydronaphthalen-1-yl)-5-methoxyphenyl)-7-azaspiro[3.5]nonan-2-yl)methyl)-5-methoxy-6-oxo-6,8-dihydro-2H,7H-spiro[furo[2,3-e]isoindole-3,4′-piperidin]-7-yl)piperidine-2,6-dione], in the test with MCF-7 cells, the IC50 is < 10 nM.

`O=C1CCC(Nc2ccc(C34CCN(C[C@@H]5COC6(CCN(c7ccc([C@@H]8c9ccc(O)cc9CC[C@@H]8c8ccccc8)cc7)CC6)C5)CC3C4(F)F)cc2)C(=O)N1` (stereo partly drawn) [Compound A45, (3S)-3-((4-(7,7-difluoro-3-(((R)-8-(4-((1R,2S)-6-hydroxy-2-phenyl-1,2,3,4-tetrahydro-naphthalen-1-yl)phenyl)-1-oxa-8-azaspiro[4.5]decan-3-yl)-methyl)-3-azabicyclo[4.1.0]heptan-6-yl)phenyl)amino)-piperidine-2,6-dione]: the DC50 at ER in T47D cells (16 hrs treatment) and at ER in MCF-7 cells (16 hrs treatment) was > 100 nM each time. The Dmax at ER in T47D cells (setting [1]) and at ER in MCF-7 cells (setting [2]) was < 25% throughout. Besides, the IC50 on CRBN/DDB1 was > 5000 nM.

Consider `O=C1CC[C@H](N2Cc3c(ccc4c3OC[C@H]3CN(CC5CCC6(CC5)CN(c5ncc([C@H]7c8ccc(O)cc8CC[C@H]7c7ccccc7)cn5)C6)CCN43)C2=O)C(=O)N1` (single isomer, unassigned) [Compound A155], for which the DC50 at ER in T47D cells (16 hrs treatment) was 10 to 100 nM; on ER in MCF-7 cells (16 hrs treatment), 1 to 10 nM. The Dmax is < 25% on ER in T47D cells (maximal ER degradation, 16 hrs treatment, read-out: T47D Dmax) and 25 to 50% on ER in MCF-7 cells (MCF7, MCF-7, maximal ER degradation, 16 hrs treatment, read-out: MCF7 Dmax). Also, on CRBN/DDB1, the IC50 lay within 50 to 500 nM.

On to `COc1cc(N2CCC(CN3CCC4(CC3)COc3c4ccc4c3CN([C@H]3CCC(=O)NC3=O)C4=O)CC2)ccc1[C@@H]1c2ccc(O)cc2CC[C@@H]1c1ccccc1` [Compound A37, (R)-3-(1′-((1-(4-((1R,2R)-6-hydroxy-2-phenyl-1,2,3,4-tetrahydronaphthalen-1-yl)-3-methoxyphenyl)piperidin-4-yl)methyl)-6-oxo-6,8-dihydro-2H,7H-spiro[furo[2,3-e]iso-indole-3,4′-piperidin]-7-yl)-piperidine-2,6-dione], for which the DC50 at ER in T47D cells (16 hrs treatment) and on ER in MCF-7 cells (16 hrs treatment) was < 1 nM each time. Besides, the Dmax on ER in T47D cells (setting [1]) and at ER in MCF-7 cells (setting [2]) was 25 to 50% in each case. Moreover, at CRBN/DDB1, the IC50 was < 50 nM.

Broadly, the IC50 is the midpoint of a concentration-inhibition curve. A word on the DC50: it is the concentration giving 50% degradation. By Dmax is commonly meant the greatest extent of degradation seen.
